The MIC is the lowest concentration found to suppress growth.

Test [1] concerns Eschericia coli (E. coli) strain ATCC25922. Nature of the test: Standard microdilution assay, MIC against E. coli ATCC25922. Format: cell-based. The following applies: Escherichia coli; E. coli strain ATCC25922, standard microdilution assay; cutoff 16 micrograms/mL; read-out: MIC E. Coli. The method in brief: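 MIC determined by broth microdilution following CLSI protocols, with reference strains run in parallel for quality control. Activity scored +/− at a cutoff of 16 micrograms/mL.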
Background: In broth dilution the organism is exposed to a series of concentrations in liquid medium.

In test [2] the test system is Staphylococcus aureus (S. aureus) 11540 strain. Kind of test: Standard microdilution assay, MIC against S. aureus 11540. It is filed as cell-based. The following applies: S. aureus 11540 strain, standard microdilution assay, cutoff 16 micrograms/mL, read-out: MIC S. aureus. As for the experimental part:
The in vitro activity of the compounds of the present invention can be determined. Antimicrobial testing is typically performed to determine the minimum inhibitory concentration (MIC). Minimum inhibitory concentrations (MICs) are determined by the microdilution method in a final volume of 100 μl according to protocols outlined by The Clinical and Laboratory Standards Institute (CLSI). Performance standards for reference strains are assessed within the same experimental design to maintain quality control. See, for example, Clinical Laboratory Standards Institute: Methods for dilution antimicrobial susceptibility tests for bacteria that grow aerobically M7-A8. Approved Standard-Eighth Edition. Wayne, Pa.: CLSI; December 2008; and Clinical Laboratory Standards Institute: Performance Standards for Antimicrobial Susceptibility Testing M100-S20; Approved Standard-Twentieth Edition. Wayne, Pa.: CLSI; June 2010.
The compounds of the present invention were tested for antimicrobial activity. The Compounds 1-582 were run against Eschericia coli (E. coli) strain ATCC25922 and Compounds 320-582 were run against Staphylococcus aureus (S. aureus) 11540 strain using a standard microdilution assay to determine minimum inhibitory concentrations (MICs). […] It will be recognized by one skilled in the art that the compounds can be assessed against other bacterial organisms and that the presentation of data for activity against Eschericia coli and Staphylococcus aureus are illustrative and in no way is intended to limit the scope of the present invention. The compounds of the present invention can be assayed against a range of other microorganisms depending upon the performance activity desired to be gathered. Furthermore, the “+” and “−” representation and the selection of a cutoff value of 16 micrograms/mL is also illustrative and in no way is intended to limit the scope of the present invention.

As to `C[C@H](N)CCCc1cc(OC(F)(F)F)c(F)c(-c2cc3cn(-c4ccc(C5(CCNC(=N)N)CNC5)cc4)c(=O)nc3[nH]2)c1` [Compound 435], the MIC in test [1] and in test [2] was below 16 µg/mL throughout.

For the molecule `C[C@H](N)CCCc1cc(Cl)c(F)c(-c2cc3cn(-c4ccc([C@@H](N)CCNC(=N)N)cc4)c(=O)nc3[nH]2)c1` [Compound 427], the MIC in test [1] and in test [2] was below 16 µg/mL in each case.

With `C[C@H](N)CCCc1cc(-c2cc3cn(-c4ccc([C@@H]5CCC[C@@H](CCN)N5)cc4)c(=O)nc3[nH]2)cc(C(F)(F)F)c1` [Compound 485], the MIC in test [1] and in test [2] was below 16 µg/mL throughout.

In the case of `C[C@H](N)CCCc1cc(Cl)c(F)c(-c2cc3cn(-c4ccc([C@@H]5COC[C@@H](CCN)N5)cc4)c(=O)nc3[nH]2)c1` [Compound 354], the minimal inhibitory concentration (MIC) in test [1] and in test [2] was below 16 µg/mL throughout.

As for `C[C@H](N)CCCc1cc(OC(F)(F)F)c(F)c(-c2cc3cn(-c4ccc([C@@H]5COC[C@@H](CNC(=N)N)N5)cc4)c(=O)nc3[nH]2)c1` [Compound 466], the MIC in test [1] and in test [2] was below 16 µg/mL in each case.

On to `C[C@H](N)CCCc1cc(OC(F)(F)F)c(F)c(-c2cc3cn(-c4ccc([C@@H]5CCC[C@H](CCNC(=N)N)N5)cc4)c(=O)nc3[nH]2)c1` [Compound 439], for which the MIC in test [1] and in test [2] was below 16 µg/mL each time.

In the case of `C[C@H](N)CCCc1cc(OC(F)(F)F)c(F)c(-c2cc3cn(-c4ccc([C@H](C)NCC[C@@H](CCN)NC(=N)N)cc4)c(=O)nc3[nH]2)c1` [Compound 335], the minimal inhibitory concentration (MIC) in test [1] and in test [2] was below 16 µg/mL in each case.

As to `C[C@H](N)CCCc1cc(OC(F)(F)F)c(F)c(-c2cc3cn(-c4ccc([C@H](C)NCC[C@H](CC(N)=O)NC(=N)N)cc4)c(=O)nc3[nH]2)c1` [Compound 344], the MIC in test [1] and in test [2] was below 16 µg/mL in each case.

On to `C[C@@H](CNC(=N)N)CN1CC[C@@H](c2cc3cn(-c4ccc([C@H](C)NCCCNC(=N)N)cc4)c(=O)nc3[nH]2)C1` [Compound 576], for which the MIC in test [1] and in test [2] was below 16 µg/mL each time.

On to `C[C@H](N)CCCc1cc(Cl)c(F)c(-c2cc3cn(-c4ccc(CN[C@@H](C)C[C@H](CCO)NC(=N)N)cc4)c(=O)nc3[nH]2)c1` [Compound 360], for which the minimal inhibitory concentration (MIC) in test [1] and in test [2] was below 16 µg/mL each time.

Consider `C[C@H](N)CCCc1cc(OC(F)(F)F)c(F)c(-c2cc3cn(-c4ccc(C(O)[C@@H]5C[C@@H](N)CN5)cc4)c(=O)nc3[nH]2)c1` (stereo partly shown) [Compound 449], for which the MIC in test [1] was above 16 µg/mL; in test [2] it was below 16 µg/mL.

Take `C[C@H](N)CCCc1cc(Cl)c(F)c(-c2cc3cn(-c4ccc(CNCC[C@H](CN5CCOCC5)NC(=N)N)cc4)c(=O)nc3[nH]2)c1` [Compound 322]: the MIC in test [1] and in test [2] was below 16 µg/mL each time.

As to `C[C@H](N)CCCc1cc(Cl)c(F)c(-c2cc3cn(-c4ccc([C@@H]5CCC[C@@H](CCNc6ncc[nH]6)N5)cc4)c(=O)nc3[nH]2)c1` [Compound 552], the MIC in test [1] and in test [2] was below 16 µg/mL throughout.

Consider `C[C@H](N)CCCc1cc(OC(F)(F)F)c(F)c(-c2cc3cn(-c4ccc([C@@H]5CCC[C@@H](CCN)N5)cc4)c(=O)nc3[nH]2)c1` [Compound 429], for which the MIC in test [1] and in test [2] was below 16 µg/mL each time.

Regarding `C[C@H](N)CCCc1cc(Cl)c(F)c(-c2cc3cn(-c4ccc([C@@H]5CCC[C@@H](CC#N)N5)cc4)c(=O)nc3[nH]2)c1` [Compound 498], the MIC in test [1] is above 16 µg/mL; in test [2], below 16 µg/mL.

In the case of `C[C@H](NCCCNC(=N)N)c1ccc(-n2cc3cc(-c4cc([C@@H]5CC[C@H](C)N5)cc(Cl)c4F)[nH]c3nc2=O)cc1` [Compound 343], the minimum inhibitory concentration (MIC) in test [1] and in test [2] was below 16 µg/mL in each case.

On to `C[C@H](N)CCCc1cc(Cl)c(F)c(-c2cc3cn(-c4ccc([C@H](C)N[C@H](CO)CCNC(=N)N)cc4)c(=O)nc3[nH]2)c1` [Compound 367], for which the MIC in test [1] and in test [2] was below 16 µg/mL throughout.

With `C[C@H](N)CCCc1cc(OC(F)(F)F)c(F)c(-c2cc3cn(-c4ccc([C@H](C)NCC[C@H](CNC(=O)CN)NC(=N)N)cc4)c(=O)nc3[nH]2)c1` [Compound 369], the minimum inhibitory concentration (MIC) in test [1] and in test [2] was below 16 µg/mL each time.

Consider `C[C@H](NCCCNC(=N)N)c1ccc(-n2cc3cc(-c4cc(CCC[C@@H](N)CN=[N+]=[N-])cc(Cl)c4F)[nH]c3nc2=O)cc1` [Compound 326], for which the MIC in test [1] and in test [2] was below 16 µg/mL throughout.

`C[C@H](N)CCCc1cc(Cl)c(F)c(-c2cc3cn(-c4ccc([C@H]5CCO[C@H](CCNC(=N)N)C5)cc4)c(=O)nc3[nH]2)c1` [Compound 555]: the MIC in test [1] and in test [2] was below 16 µg/mL each time.

For `C[C@H](N)CCCc1cc(Cl)c(F)c(-c2cc3cn(-c4ccc(C(=N)NCC[C@H](C)N)cc4)c(=O)nc3[nH]2)c1` [Compound 512], the minimal inhibitory concentration (MIC) in test [1] and in test [2] was below 16 µg/mL in each case.

`CC(=N)NCC[C@@H]1CCC[C@@H](c2ccc(-n3cc4cc(-c5cc(CCC[C@H](C)N)cc(Cl)c5F)[nH]c4nc3=O)cc2)N1` [Compound 516]: the MIC in test [1] and in test [2] was below 16 µg/mL each time.

In the case of `C[C@H](N)CCCc1cc(Cl)c(F)c(-c2cc3cn(-c4ccc(C(=N)N)cc4)c(=O)nc3[nH]2)c1` [Compound 566], the MIC in test [1] was above 16 µg/mL; in test [2], below 16 µg/mL.

In the case of `COC(=O)[C@H](CCNC(=N)N)N[C@@H](C)c1ccc(-n2cc3cc(-c4cc(CCC[C@H](C)N)cc(Cl)c4F)[nH]c3nc2=O)cc1` [Compound 356], the minimum inhibitory concentration (MIC) in test [1] and in test [2] was below 16 µg/mL each time.

Take `C[C@H](N)CCCc1cc(Cl)c(F)c(-c2cc3cn(-c4ccc(CN[C@H](CCNC(=N)N)CNc5ncccn5)cc4)c(=O)nc3[nH]2)c1` [Compound 524]: the minimal inhibitory concentration (MIC) in test [1] and in test [2] was below 16 µg/mL in each case.

As to `C[C@H](N)CCCc1cc(Cl)c(F)c(-c2cc3cn(-c4ccc([C@@H]5CC(CCNC(=N)N)CN5)cc4)c(=O)nc3[nH]2)c1` (stereo partly shown) [Compound 405], the MIC in test [1] and in test [2] was below 16 µg/mL each time.

On to `C[C@H](N)CCCc1cc(Cl)c(F)c(-c2cc3cn(-c4ccc(CNCC[C@@H](CN)NC(=N)N)cc4)c(=O)nc3[nH]2)c1` [Compound 375], for which the MIC in test [1] and in test [2] was below 16 µg/mL in each case.

For the molecule `C[C@H](N)CCCc1cc(Cl)c(F)c(-c2cc3cn(-c4ccc([C@H](C)NCC[C@H](CNC(=O)CN)NC(=N)N)cc4)c(=O)nc3[nH]2)c1` [Compound 368], the minimal inhibitory concentration (MIC) in test [1] and in test [2] was below 16 µg/mL each time.

For the molecule `C[C@H](N)CCCc1cc(OC(F)(F)F)c(F)c(-c2cc3cn(-c4ccc([C@@H]5CCC[C@@H](CCNC(=N)N)N5)cc4)c(=O)nc3[nH]2)c1` [Compound 430], the MIC in test [1] and in test [2] was below 16 µg/mL each time.

On to `C[C@H](N)CCCc1cc(Cl)c(F)c(-c2cc3cn(-c4ccc([C@H](C)N5CC[C@@H](NC(=N)N)C5)cc4)c(=O)nc3[nH]2)c1` [Compound 431], for which the minimum inhibitory concentration (MIC) in test [1] and in test [2] was below 16 µg/mL throughout.

With `C[C@H](N)CCCc1cc(-c2cc3cn(CC(=O)NCc4ccc(CNC(=N)N)cc4)c(=O)nc3[nH]2)cc(C(F)(F)F)c1` [Compound 582], the MIC in test [1] and in test [2] was above 16 µg/mL throughout.

With `C[C@H](N)CCCc1cc(OC(F)(F)F)c(F)c(-c2cc3cn(-c4ccc([C@@H]5CC(CCNC(=N)N)CN5)cc4)c(=O)nc3[nH]2)c1` (stereo partly shown) [Compound 408], the MIC in test [1] and in test [2] was below 16 µg/mL each time.

On to `N=C(N)NCC[C@@H]1CCC[C@@H](c2ccc(-n3cc4cc(-c5cc(CCC[C@@H](N)CO)cc(Cl)c5F)[nH]c4nc3=O)cc2)N1` [Compound 484], for which the MIC in test [1] and in test [2] was below 16 µg/mL in each case.

Consider `C[C@H](N)CCCc1cc(Cl)c(F)c(-c2cc3cn(-c4ccc(CN[C@H](CCNC(=N)N)CNc5nccs5)cc4)c(=O)nc3[nH]2)c1` [Compound 491], for which the minimal inhibitory concentration (MIC) in test [1] and in test [2] was below 16 µg/mL each time.

With `COC[C@@H](CCNC(=N)N)NCc1ccc(-n2cc3cc(-c4cc(CCC[C@H](C)N)cc(OC(F)(F)F)c4F)[nH]c3nc2=O)cc1` [Compound 351], the MIC in test [1] and in test [2] was below 16 µg/mL each time.

Turning to `C[C@H](N)CCCc1cc(OC(F)(F)F)c(F)c(-c2cc3cn(-c4ccc(C(O)[C@@H]5C[C@@H](NC(=N)N)CN5)cc4)c(=O)nc3[nH]2)c1` (stereo partly shown) [Compound 448], the minimal inhibitory concentration (MIC) in test [1] and in test [2] was below 16 µg/mL in each case.

Turning to `CC[C@H](N)CCCc1cc(Cl)c(F)c(-c2cc3cn(-c4ccc(CN5CC[C@H](CN)NC5=N)cc4)c(=O)nc3[nH]2)c1` [Compound 416], the MIC in test [1] and in test [2] was below 16 µg/mL throughout.

Turning to `C[C@H](N)CCCc1cc(Cl)c(F)c(-c2cc3cn(-c4ccc([C@@H]5CCC[C@@H](CCNC(N)=O)N5)cc4)c(=O)nc3[nH]2)c1` [Compound 510], the minimal inhibitory concentration (MIC) in test [1] and in test [2] was above 16 µg/mL throughout.

The record behind these values is US10815238B2, “Antimicrobial compounds and methods of making and using the same” (BIOVERSYS AG, priority 2013, dated 2020).
